Experimental data: patent publication US7517889B2, “2,6-substituted-4-monosubstitutedamino-pyrimidine as prostaglandin D2 receptor antagonists” (Aventis Pharmaceuticals, Inc., priority 2004, dated 2009)
Where a name gives a salt, the structure may show the parent alone.

Biological target: T1, DP receptor (Homo sapiens, UniProt Q13258)
T1 construct: the human cell line LS174T, which expresses the endogenous DP receptor; endogenous in cells; host or cells: LS174T human cell line
T1 sequence (Q13258 1-359): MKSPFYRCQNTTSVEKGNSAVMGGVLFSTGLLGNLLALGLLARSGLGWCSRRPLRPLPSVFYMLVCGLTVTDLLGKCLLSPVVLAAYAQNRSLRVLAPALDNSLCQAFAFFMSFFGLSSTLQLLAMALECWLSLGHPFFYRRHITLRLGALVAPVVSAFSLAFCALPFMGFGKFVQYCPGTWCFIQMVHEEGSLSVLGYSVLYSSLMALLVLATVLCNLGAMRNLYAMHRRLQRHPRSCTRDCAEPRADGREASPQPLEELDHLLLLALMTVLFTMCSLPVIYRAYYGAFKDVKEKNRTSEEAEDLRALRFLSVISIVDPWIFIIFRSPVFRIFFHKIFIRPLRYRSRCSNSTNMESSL
Experiment: SPA cAMP assay in human LS174 T cells (human DP functional assay)
Type: cell-based
Conditions: inhibition of PGD2 (15 nM final) stimulated cAMP, LS174T cells expressing endogenous DP receptor
Method: The inhibitory effects of the compounds according to the invention are assessed in a human DP functional assay. A cAMP assay is employed using the human cell line LS174T, which expresses the endogenous DP receptor.
Protocol for SPA cAMP Assay in Human LS174 T Cells
• 1) Add equal volumes of tracer, antiserum and SPA anti-rabbit reagent to a bottle, ensuring that a sufficient volume of this mixture is prepared for the desired number of wells (150 μL/well). • 2) Mix thoroughly. • 3) This immunoreagent solution should be freshly prepared before each assay and not re-used.
Add 50 μL of […] IBMX into 100 mL PBS to make a final concentration of 100 μM and sonicate at 30° C. for 20 minutes.
Before each assay, it is freshly prepared. Add 3 μL of 10 mM stock solution to 20 mL DMSO, mix it thoroughly, and transfer 10 mL to 40 mL PBS.
Compound dilution is carried out in Biomex 2000 (Beckman) using Method 1_cAMP DP 11 points.
5 μL of each compound from the 10 mM stock compound plates is transferred to the wells of a 96-well plate respectively as below.
Fill the plate with 45 μL of DMSO except column 7 is filled with 28 μL DMSO. Pipette column 1 thoroughly, and transfer 12 μL into column 7 parallel. Perform 1:10 serial dilution from column 1 to column 6 and from column 7 to column 11 by transfer 5 μL to 45 μL DMSO to make following concentrations:
Fill a new 96-well plate with 247.5 μL of compound dilution buffer. Transfer 2.5 μL of serially diluted compounds from above plate to the new plate (1:100 dilution) as following:
Cell Growth • 1. […] Remove growth medium from cells. Cells in T165 flask are washed twice with 4 mL Trypsin followed by incubation at 37° C. and 5% CO2 for 3 minutes. • 4. Add 10 mL of medium and pipette thoroughly to separate the cells and count the cells. • 5. […] Assay Procedure Day 1 • Seed 45,000 cells/well in 200 μL medium in 96-well plates. Incubate the cell plate at 37° C., 5% CO2 and 95% humidity overnight. Day 2 • 1. Perform compound dilution. • 2. Prepare assay buffer, lysis buffer 1 & 2, PGD2 and standard. • 3. Aspirate media from the cells and add 100 μL of compound solution using Zymark Sciclone-ALH/FD protocol cAMP DP. • 4. Incubate the cells at 37° C., 5% CO2 and 95% humidity for 15 minutes. • 5. […] Aspirate media from the cells and add 50 μL of lysis buffer 1 using Zymark protocol cAMP DP lysis, and incubate at room temperature with shaking for 30 minutes. • 7. Add 150 μL immunoreagent to all wells (a total volume of 200 μL/well). • 8. Seal the plates and shake for 2 minutes, put into the chamber of the Wallac microtitre plate μ scintillation counter for 16 hours. […] Data Processing Set up standard curve of cAMP versus CPM.
The cAMP concentrations (pmol/mL) of unknown samples are calculated from a standard curve of cAMP versus CPM. % inhibition is calculated using the following formula: […]

Structure (SMILES) | IC50
COc1ccc(CCNc2cc(-c3ccsc3CO)nc(OC)n2)cc1 [Example 9(b), (3-{2-Methoxy-6-[2-(4-methoxy-phenyl)-ethylamino]-pyrimidin-4-yl}-thiophen-2-yl)-methanol] | 1.7 nM
COc1nc(NCCc2ccc(OC)c(OC)c2)cc(-c2cccc(C(=O)NCCN3CCCC3)c2)n1 [Example 25(b), 3-{6-[2-(3,4-Dimethoxy-phenyl)-ethylamino]-2-methoxy-pyrimidin-4-yl}-N-(2-pyrrolidin-1-yl-ethyl)-benzamide] | 30 nM
CCNC(=O)Oc1cccc(-c2cc(NCCc3ccc(Cl)cc3Cl)nc(OC)n2)c1 [Example 60, Ethyl-carbamic acid 3-{6-[2-(2,4-dichloro-phenyl)-ethylamino]-2-methoxy-pyrimidin-4-yl}-phenyl ester] | 0.5 nM
COc1nc(NCCc2c(F)cccc2Cl)cc(-c2ccc(=O)n(Cc3n[nH]c(=O)o3)c2)n1 [Example 33, 5-{6-[2-(2-Chloro-6-fluoro-phenyl)-ethylamino]-2-methoxy-pyrimidin-4-yl}-1-(5-oxo-4,5-dihydro-[1,3,4]oxadiazol-2-ylmethyl)-1H-pyridin-2-one] | 1.2 nM
COc1nc(NCCc2ccc(OC(F)F)cc2)cc(-c2cccc(S(C)(=O)=O)c2)n1 [example 46(d), [2-(4-Difluoromethoxy-phenyl)-ethyl]-[6-(3-methanesulfonyl-phenyl)-2-methoxy-pyrimidin-4-yl]-amine hydrochloride] | 17 nM
COc1ccc(C(C)(C)CNc2cc(-c3cccc(OC)c3)nc(OC)n2)cc1 [Example 29, [2-Methoxy-6-(3-methoxy-phenyl)-pyrimidin-4-yl]-[2-(4-methoxy-phenyl)-2-methyl-propyl]-amine] | 792 nM
COc1ccc(CNc2cc(-c3cccc(OC)c3)nc(OC)n2)cc1 [Example 43(k), (4-Methoxy-benzyl-[2-methoxy-6-(3-methoxy-phenyl)-pyrimidin-4-yl]-amine hydrochloride] | 1070 nM
COc1nc(NC2CCc3ccccc32)cc(-c2cccc(C(C)(C)C(=O)O)c2)n1 (stereo not drawn) [Example 83(a), 2-{3-[6-(Indan-1-ylamino)-2-methoxy-pyrimidin-4-yl]-phenyl}-2-methyl-propionic acid] | 83 nM
COc1ccc(CCNc2cc(-c3ccc(C(C)=O)s3)nc(OC)n2)cc1 [Example 35(m), 1-(5-{2-Methoxy-6-[2-(4-methoxy-phenyl)-ethylamino]-pyrimidin-4-yl}-thiophen-2-yl)-ethanone] | 3.8 nM
COc1nc(NCCc2ccc3c(c2)OC(F)(F)O3)cc(-c2cccnc2)n1 [Example 46(b), [2-(2,2-difluoro-benzo[1,3]dioxol-5-yl)-ethyl]-(2-methoxy-6-pyridin-3-yl-pyrimidin-4-yl)-amine] | 212 nM
COc1ccc(CCNc2cc(-c3ccc(C(=O)O)s3)nc(OC)n2)cc1 [Example 8(a), 5-{2-Methoxy-6-[2-(4-methoxy-phenyl)-ethylamino]-pyrimidin-4-yl}-thiophene-2-carboxylic acid trifluoroacetate] | 0.33 nM

More lines, in order of falling IC50, values ahead:

IC50 | Structure (SMILES)
4650 nM | COc1ccc(CCNc2cc(-c3cccc(OC)c3)nc(N(C)C)n2)cc1 [Example 19, 6-(3-Methoxy-phenyl)-N*4*-[2-(4-methoxy-phenyl)-ethyl]-N*2*,N*2*-dimethyl-pyrimidine-2,4-diamine hydrochloride]
393 nM | COc1nc(NCc2ccsc2)cc(-c2cccc(C(C)(C)C(=O)O)c2)n1 [Example 71, 2-(3-{2-Methoxy-6-[(thiophen-3-ylmethyl)-amino]-pyrimidin-4-yl}-phenyl)-2-methyl-propionic acid]
219 nM | CCc1nc(NCCc2ccc(OC)cc2)cc(-c2cccc(OC)c2)n1 [Example 18, [2-Ethyl-6-(3-methoxy-phenyl)-pyrimidin-4-yl]-[2-(4-methoxy-phenyl)-ethyl]-amine]
70 nM | COC(=O)C1(c2cccc(-c3cc(NCCc4ccc(OC(F)(F)F)cc4)nc(OC)n3)c2)CCOCC1 [Example 84(b), 4-(3-{2-Methoxy-6-[2-(4-trifluoromethoxy-phenyl)-ethylamino]-pyrimidin-4-yl}-phenyl)-tetrahydro-pyran-4-carboxylic acid methyl ester]
7 nM | COc1nc(NCCc2ccc(Cl)cc2Cl)cc(N2CCC(C(=O)O)CC2)n1 [Example 97, 1-{6-[2-(2,4-Dichloro-phenyl)-ethylamino]-2-methoxy-pyrimidin-4-yl}-piperidine-4-carboxylic acid]
6 nM | COc1ccc(CCNc2cc(-c3cccc(CC#N)c3)nc(OC)n2)cc1 [Example 35(s), (3-{2-Methoxy-6-[2-(4-methoxy-phenyl)-ethylamino]-pyrimidin-4-yl}-phenyl)-acetonitrile]
5.1 nM | COc1ccc(CCNc2cc(-c3cc4ccccc4s3)nc(OC)n2)cc1 [Example 10(g), (6-Benzo[b]thiophen-2-yl-2-methoxy-pyrimidin-4-yl)-[2-(4-methoxy-phenyl)-ethyl]-amine]
4.8 nM | COc1nc(NCCc2ccc(OC(F)(F)F)cc2)cc(-c2cccc(NC(C)=O)c2)n1 [Example 6(a), N-(3-{2-Methoxy-6-[2-(4-trifluoromethoxy-phenyl)-ethylamino]-pyrimidin-4-yl}phenyl)-acetamide]
2.7 nM | COCc1nc(NCCc2ccc(Cl)cc2Cl)cc(-c2cccc(C(C)(C)C(=O)O)c2)n1 [Example 85, 2-(3-{6-[2-(2,4-Dichloro-phenyl)-ethylamino]-2-methoxymethyl-pyrimidin-4-yl}-phenyl)-2-methyl-propionic acid]
2.6 nM | COc1ccc(CCNc2cc(-c3cccc(-c4nc(C)no4)c3)nc(OC)n2)cc1 [Example 36, {2-Methoxy-6-[3-(3-methyl-[1,2,4]oxadiazol-5-yl)-phenyl]-pyrimidin-4-yl}-[2-(4-methoxy-phenyl)-ethyl]-amine]
1.7 nM | COc1ccc(CCNc2cc(-c3ccc(OC)nc3)nc(OC)n2)cc1 [Example 35(o), [2-Methoxy-6-(6-methoxy-pyridin-3-yl)-pyrimidin-4-yl]-[12-(4-methoxy-phenyl)-ethyl]-amine]
0.8 nM | COc1ccc(CCNc2cc(-c3ccc(/C(C)=N\O)s3)nc(OC)n2)cc1 [Example 26(e), 1-(5-{2-Methoxy-6-[2-(4-methoxy-phenyl)-ethylamino]-pyrimidin-4-yl}-thiophen-2-yl)-ethanone oxime]
0.3 nM | COc1nc(NCCc2c(F)cccc2Cl)cc(-c2cccc(OCc3noc(=O)[nH]3)c2)n1 [Example 34(c), 3-(3-{6-[2-(2-Chloro-6-fluoro-phenyl)-ethylamino]-2-methoxy-pyrimidin-4-yl}-phenoxymethyl)-4H-[1,2,4]oxadiazol-5-one hydrochloride]
0.3 nM | COc1nc(NCCc2ccc(Cl)cc2Cl)cc(-c2cccc(C(=O)O)c2)n1 [Example 35(w), 3-{6-[2-(2,4-dichloro-phenyl)-ethylamino]-2-methoxy-pyrimidin-4-yl}-benzoic acid]
0.05 nM | COc1nc(NCCc2ccc(Cl)cc2Cl)cc(-c2cccc(C3(C(=O)O)CCOCC3)c2)n1 [Example 80(a), 4-(3-{6-[2-(2,4-Dichloro-phenyl)-ethylamino]-2-methoxy-pyrimidin-4-yl}-phenyl)-tetrahydro-pyran-4-carboxylic acid]
0.02 nM | COc1nc(NCCc2ccc(Cl)cc2Cl)cc(-c2cccc(C(F)(F)C(=O)O)c2)n1 [Example 81(a), (3-{6-[2-(2,4-Dichloro-phenyl)-ethylamino]-2-methoxy-pyrimidin-4-yl}-phenyl)-difluoro-acetic acid]
